Experimental data reported in patent US20140087369A1, “INFECTION DETECTION METHODS AND SYSTEMS AND RELATED COMPOUNDS AND COMPOSITIONS” (priority 2010, published 2014).

System: viral neuraminidase
Type: biochemical, influenza virus
Details: pH 5.5

Row | Molecule | enzymatic cleavage of the substrate and release of odorant (decrease of substrate signal, appearance of cleavage product signals)
1 | Sodium (4-(4-hydroxy-3-methoxyphenyl)butan-2-one-5-acetamido-3,5-dideoxy-α-D-glycero-D-galacto-2-nonulopyranoside)onate [zingerone] | significant loss of peak at 508.3 amu
2 | CC(=O)NC1C(O)CC(OCC2(C)CC2CC2CC3CC3(C)C2(C)C)(C(=O)O)OC1CC(O)CO [javanol, Sodium ([(1R,2S)-1-methyl-2-[[(1R,3S,5S)-1,2,2-trimethyl-3-bicyclo[3.1.0]hexanyl]methyl]cyclopropyl]methyl-5-acetamido-3,5-dideoxy-α-D-glycero-D-galacto-2-nonulopyranoside)onate] | substrate is still present
